Reference: ChEMBL document CHEMBL3272269, “Synthesis and antileukemic activities of furanyl, pyranyl, and ribosyl derivatives of 4-(3,3-dimethyl-1-triazeno)imidazole-5-carboxamide and 3-(3,3-dimethyl-1-triazeno)pyrazole-4-carboxamide” (J Med Chem, 1979)
Activity calls are given as the source filed them. No cut-off for these calls is given here.

Tests used:
Mus musculus [1] = assay: Toxicity in mouse L1210 cells allografted BDF1 mouse assessed as reduction in body weight at 100 mg/kg administered on day 1 followed by 3 injections with 4 day interval; format: organism-based; set-up: dose 100 mg/kg; conditions: in vivo, 96 h
L1210 [2] = assay: Antitumor activity against mouse L1210 cells allografted in mouse assessed as survival at 200 mg/kg administered on day 1 followed by 3 injections with 4 day interval; format: functional, organism-based; set-up: dose 200 mg/kg
L1210 [3] = assay: Antitumor activity against mouse L1210 cells allografted in mouse assessed as increase in survival at 200 mg/kg administered on day 1 followed by 3 injections with 4 day interval relative to control; format: functional
Mus musculus [4] = assay: Toxicity in mouse L1210 cells allografted BDF1 mouse assessed as reduction in body weight at 400 mg/kg administered on day 1 followed by 3 injections with 4 day interval; format: organism-based; set-up: dose 400 mg/kg; conditions: in vivo, 96 h
L1210 [5] = assay: Antitumor activity against mouse L1210 cells allografted in mouse assessed as increase in survival at 100 mg/kg administered on day 1 followed by 3 injections with 4 day interval relative to control; format: functional
L1210 [6] = assay: Antitumor activity against mouse L1210 cells allografted in mouse assessed as survival at 100 mg/kg administered on day 1 followed by 3 injections with 4 day interval; format: functional, organism-based; set-up: dose 100 mg/kg
Mus musculus [7] = assay: Toxicity in mouse L1210 cells allografted BDF1 mouse assessed as reduction in body weight at 200 mg/kg administered on day 1 followed by 3 injections with 4 day interval; format: organism-based; set-up: dose 200 mg/kg; conditions: in vivo, 96 h
L1210 [8] = assay: Antitumor activity against mouse L1210 cells allografted in mouse assessed as survival at 400 mg/kg administered on day 1 followed by 3 injections with 4 day interval; format: functional, organism-based; set-up: dose 400 mg/kg
L1210 [9] = assay: Antitumor activity against mouse L1210 cells allografted in mouse assessed as increase in survival at 400 mg/kg administered on day 1 followed by 3 injections with 4 day interval relative to control; format: functional
L1210 [10] = assay: Antitumor activity against mouse L1210 cells allografted in mouse assessed as survival at 200 mg/kg administered on day 1 followed by 5 injections with 1 day interval; format: functional, organism-based; set-up: dose 200 mg/kg
L1210 [11] = assay: Antitumor activity against mouse L1210 cells allografted in mouse assessed as increase in survival at 200 mg/kg administered on day 1 followed by 5 injections with 1 day interval relative to control; format: functional
L1210 [12] = assay: Antitumor activity against mouse L1210 cells allografted in mouse assessed as increase in survival at 100 mg/kg administered on day 1 followed by 5 injections with 1 day interval relative to control; format: functional
Mus musculus [13] = assay: Toxicity in mouse L1210 cells allografted mouse assessed as reduction in body weight at 200 mg/kg administered on day 1 followed by 5 injections with 1 day interval; format: organism-based; set-up: dose 200 mg/kg; conditions: in vivo, 24 h
Mus musculus [14] = assay: Toxicity in mouse L1210 cells allografted mouse assessed as reduction in body weight at 100 mg/kg administered on day 1 followed by 5 injections with 1 day interval; format: organism-based; set-up: dose 100 mg/kg; conditions: in vivo, 24 h
L1210 [15] = assay: Antitumor activity against mouse L1210 cells allografted in mouse assessed as survival at 100 mg/kg administered on day 1 followed by 5 injections with 1 day interval; format: functional, organism-based; set-up: dose 100 mg/kg
Mus musculus [16] = assay: Toxicity in mouse L1210 cells allografted BDF1 mouse assessed as reduction in body weight at 180 mg/kg administered on day 1 followed by 9 injections with 1 day interval; format: organism-based; set-up: dose 180 mg/kg; conditions: in vivo, 24 h
Mus musculus [17] = assay: Toxicity in mouse L1210 cells allografted BDF1 mouse assessed as reduction in body weight at 65 mg/kg administered on day 1 followed by 9 injections with 1 day interval; format: organism-based; set-up: dose 65 mg/kg; conditions: in vivo, 24 h
Mus musculus [18] = assay: Toxicity in mouse L1210 cells allografted BDF1 mouse assessed as reduction in body weight at 109 mg/kg administered on day 1 followed by 9 injections with 1 day interval; format: organism-based; set-up: dose 109 mg/kg; conditions: in vivo, 24 h
L1210 [19] = assay: Antitumor activity against mouse L1210 cells allografted in mouse assessed as increase in survival at 65 mg/kg administered on day 1 followed by 9 injections with 1 day interval relative to control; format: functional
L1210 [20] = assay: Antitumor activity against mouse L1210 cells allografted in mouse assessed as increase in survival at 109 mg/kg administered on day 1 followed by 9 injections with 1 day interval relative to control; format: functional
L1210 [21] = assay: Antitumor activity against mouse L1210 cells allografted in mouse assessed as survival at 109 mg/kg administered on day 1 followed by 9 injections with 1 day interval; format: functional, organism-based; set-up: dose 109 mg/kg
L1210 [22] = assay: Antitumor activity against mouse L1210 cells allografted in mouse assessed as increase in survival at 180 mg/kg administered on day 1 followed by 9 injections with 1 day interval relative to control; format: functional
L1210 [23] = assay: Antitumor activity against mouse L1210 cells allografted in mouse assessed as survival at 180 mg/kg administered on day 1 followed by 9 injections with 1 day interval; format: functional, organism-based; set-up: dose 180 mg/kg
L1210 [24] = assay: Antitumor activity against mouse L1210 cells allografted in mouse assessed as survival at 65 mg/kg administered on day 1 followed by 9 injections with 1 day interval; format: functional, organism-based; set-up: dose 65 mg/kg

| SMILES | Activity (Mus musculus [1]) [g] | Activity (L1210 [2]) | T/C (L1210 [3]) [%] | Activity (Mus musculus [4]) [g] | T/C (L1210 [5]) [%] | Activity (L1210 [6]) | Activity (Mus musculus [7]) [g] | Activity (L1210 [8]) | T/C (L1210 [9]) [%] | Activity (L1210 [10]) | T/C (L1210 [11]) [%] | T/C (L1210 [12]) [%] | Activity (Mus musculus [13]) [g] | Activity (Mus musculus [14]) [g] | Activity (L1210 [15]) | other results |
| --- | --- | --- | --- | --- | --- | --- | --- | --- | --- | --- | --- | --- | --- | --- | --- | --- |
| CN(C)/N=N/c1c(C(N)=O)cnn1C1CCCCO1 (centres undefined) | 2.2 | Active | 117 | 3.5 | 107 | Active | 3.1 | Active | 123 |  |  |  |  |  |  |  |
| CN(C)/N=N/c1ncn(C2CCCO2)c1C(N)=O (centres undefined) |  |  |  |  |  |  |  |  |  | Active | 115 | 125 | 4.3 | 1.9 | Active |  |
| CC(=O)OC[C@H]1O[C@@H](n2cnc(C(N)=O)c2/N=N/N(C)C)[C@H](OC(C)=O)[C@@H]1OC(C)=O |  |  |  |  |  |  |  |  |  | Active | 95 | 104 | 0.9 | 0.3 | Active |  |
| CN(C)/N=N/c1[nH]ncc1C(N)=O |  |  |  |  |  |  |  |  |  |  |  |  |  |  |  | Activity (Mus musculus [16]): 4.9 g; Activity (Mus musculus [17]): 3.2 g; Activity (Mus musculus [18]): 3.7 g |
| CN(C)/N=N/c1nn(C2CCCCO2)cc1C(N)=O (centres undefined) | 0.9 | Active | 108 | 2.9 | 108 | Active | 1 | Active | 119 |  |  |  |  |  |  |  |
| CN(C)/N=N/c1n[nH]cc1C(N)=O |  |  |  |  |  |  |  |  |  |  |  |  |  |  |  | T/C (L1210 [19]): 142%; T/C (L1210 [20]): 176%; Activity (L1210 [21]): Active; T/C (L1210 [22]): 134%; Activity (L1210 [23]): Active; Activity (L1210 [24]): Active |
